# Reference: patent US11578083B2, “Pyrimidinium compounds and their mixtures for combating animal pests” (BASF SE, priority 2017, dated 2023)
# How the values were obtained:
# Assay type in all cases: in vivo
# [1] = system: green peach aphid (Myzus persicae); experiment: Test 2 green peach aphid, artificial diet (mixtures)
# Excerpt: (§1) For evaluating control of green peach aphid (Myzus persicae) through systemic means the test unit consisted of 96-well-microtiter plates containing liquid artificial diet under an artificial membrane.
# (§2) The compounds or mixtures were formulated using a solution containing 75% water and 25% DMSO. Concentrations of formulated compounds or mixtures were pipetted into the aphid diet, using a custom built pipetter, at two replications.
# (§3) For experimental mixtures in these tests identical volumes of both mixing partners at the desired concentrations respectively, were mixed together.
# (§4) After application, 5-8 adult aphids were placed on the artificial membrane inside the microtiter plate wells. The aphids were then allowed to suck on the treated aphid diet and incubated at 23±1° C., 50±5% RH for 3 days. Aphid mortality and fecundity was then visually assessed.
# [2] = system: tobacco budworm (Heliothis virescens); experiment: Test 4 tobacco budworm, insect diet with eggs (mixtures)
# Procedure: (§5) For evaluating control of tobacco budworm (Heliothis virescens) the test unit consisted of 96-well-microtiter plates containing an insect diet and 15-25 H. virescens eggs.
# The compounds or mixtures were formulated using a solution containing 75% water and 25% DMSO. Concentrations of formulated compounds or mixtures were sprayed onto the insect diet at 10 μl, using a custom built micro atomizer, at two replications.
# as §3
# (§6) After application, microtiter plates were incubated at 28±1° C., 80±5% RH for 5 days. Egg and larval mortality was then visually assessed.
# [3] = system: Greenhouse Whitefly (Trialeurodes vaporariorum); experiment: Test 11 Greenhouse Whitefly, egg plant leaf disk (mixtures); conditions: use rate 2500 ppm
# Procedure: For evaluating control of Greenhouse Whitefly (Trialeurodes vaporariorum) the test unit consisted of 96-well-microtiter plates containing a leaf disk of egg plant leaf disk with white fly eggs.
# The compounds or mixtures were formulated using a solution containing 75% water and 25% DMSO. Different concentrations of formulated compounds or mixtures were sprayed onto the insect diet at 2.5 μl, using a custom built micro atomizer, at two replications.
# as §3
# After application, microtiter plates were incubated at 23±1° C., 65±5% RH for 6 days. Mortality of hatched crawlers was then visually assessed.
# [4] = system: green peach aphid (Myzus persicae); experiment: Test 8 green peach aphid, artificial diet (mixtures)
# Excerpt: as §1, §2, §3, §4
# [5] = system: boll weevil (Anthonomus grandis); experiment: Test 3 boll weevil, insect diet with eggs (mixtures)
# Procedure: (§7) For evaluating control of boll weevil (Anthonomus grandis) the test unit consisted of 24-well-microtiter plates containing an insect diet and 20-30 A. grandis eggs.
# (§8) The compounds or mixtures were formulated using a solution containing 75% water and 25% DMSO. Concentrations of formulated compounds or mixtures were sprayed onto the insect diet at 20 μl, using a custom built micro atomizer, at two replications.
# as §3
# (§9) After application, microtiter plates were incubated at 23±1° C., 50±5% RH for 5 days. Egg and larval mortality was then visually assessed.
# [6] = system: vetch aphid (Megoura viciae); experiment: Test 7 vetch aphid, leaf disks (mixtures); conditions: use rate 2500 ppm
# Procedure: For evaluating control of vetch aphid (Megoura viciae) through contact or systemic means the test unit consisted of 24-well-microtiter plates containing broad bean leaf disks.
# The compounds or mixtures were formulated using a solution containing 75% water and 25% DMSO. Concentrations of formulated compounds or mixtures were sprayed onto the leaf disks at 2.5 μl, using a custom built micro atomizer, at two replications.
# as §3
# After application, the leaf disks were air-dried and 5-8 adult aphids placed on the leaf disks inside the microtiter plate wells. The aphids were then allowed to suck on the treated leaf disks and incubated at 23±1° C., 50±5% RH for 5 days. Aphid mortality and fecundity was then visually assessed.
# [7] = system: Rice green leafhopper (Nephotettix virescens); experiment: B.1 Rice green leafhopper, sprayed rice seedlings; conditions: Rice green leafhopper, Dose 1 ppm, after 72 hours, read-out: Mortality %
# Procedure: B.1 Rice Green Leafhopper (Nephotettix virescens):
# (§10) Rice seedlings are cleaned and washed 24 hours before spraying. The active compounds are formulated in 50:50 acetone:water (vol:vol), and 0.1% vol/vol surfactant (EL 620) is added. Potted rice seedlings are sprayed with 5 ml test solution, air dried, placed in cages and inoculated with 10 adults. Treated rice plants are kept at about 28-29° C. and relative humidity of about 50-60%. Percent mortality is recorded after 72 hours.
# [8] = system: Cowpea aphid (Aphis craccivora); experiment: B.3 Cowpea aphid leaf disk test; conditions: foliar, 120 h, Cowpea aphid, Dose 1 ppm, 5 days, read-out: Mortality %
# Procedure: If not otherwise specified, the test solutions are prepared as follows:
# The active compound is dissolved at the desired concentration in a mixture of 1:1 (vol:vol) distilled water: acetone. The test solution is prepared at the day of use.
# B.3 Cowpea aphid (Aphis craccivora):
# For evaluating control of Cowpea aphid through contact or systemic means the test unit consists of 24-well-microtiter plates containing broad bean leaf disks.
# The compounds are formulated using a solution containing 75% v/v water and 25% v/v DMSO. Different concentrations of formulated compounds are sprayed onto the leaf disks at 2.5 μl, using a custom built micro atomizer, at two replications.
# After application, the leaf disks are air-dried and 5-8 adult aphids placed on the leaf disks inside the microtiter plate wells. The aphids are then allowed to suck on the treated leaf disks and incubated at about 23±1° C. and about 50±5% relative humidity for 5 days. Aphid mortality and fecundity is then visually assessed.
# [9] = system: Rice brown plant hopper (Nilaparvata lugens); experiment: B.2 Rice brown plant hopper, sprayed rice seedlings; conditions: Rice brown plant hopper, Dose 1 ppm, after 72 hours, read-out: Mortality %
# Procedure: B.2 Rice Brown Plant Hopper (Nilaparvata lugens):
# as §10, with “(vol:vol)” for “(vol:vol),”
# [10] = system: Thrips (Dichromothrips corbetti); experiment: B.4 Thrips floral-immersion test; conditions: Dose 10 ppm, 72 hours after treatment, read-out: Mortality %
# Procedure: B.4 Thrips (Dichromothrips Corbetti):
# Dichromothrips corbetti adults used for bioassay are obtained from a colony maintained continuously under laboratory conditions. For testing purposes, the test compound is diluted in a 1:1 mixture of acetone:water (vol:vol), plus 0.01% vol/vol Alkamuls® EL 620 surfactant.
# Thrips potency of each compound is evaluated by using a floral-immersion technique. Plastic petri dishes are used as test arenas. All petals of individual, intact orchid flowers are dipped into treatment solution and allowed to dry. Treated flowers are placed into individual petri dishes along with about 20 adult thrips. The petri dishes v then covered with lids. All test arenas are held under continuous light and a temperature of about 28° C. for duration of the assay. After 3 days, the numbers of live thrips are counted on each flower, and along inner walls of each petri dish. The percent mortality is recorded 72 hours after treatment.
# [11] = system: boll weevil (Anthonomus grandis); experiment: Test 9 boll weevil, insect diet with eggs (mixtures)
# Procedure: as §7, §8, §3, §9
# [12] = system: tobacco budworm (Heliothis virescens); experiment: Test 10 tobacco budworm, insect diet with eggs (mixtures); conditions: use rate 2500 ppm
# Procedure: as §5
# The compounds or mixtures were formulated using a solution containing 75% water and 25% DMSO. Different concentrations of formulated compounds or mixtures were sprayed onto the insect diet at 10 μl, using a custom built micro atomizer, at two replications.
# as §3, §6
# [13] = system: brown planthopper (Nilaparvata lugens); experiment: Test 6 brown planthopper, foliar spray (mixtures); conditions: Table 6.1, after 7 days, solo application Pymetrozine, use rate 300 ppm
# Procedure: For evaluating control of brown planthopper (Nilaparvata lugens) by foliar spray method. Clean potted rice seedlings with upper leaf portion cut are properly labeled. Placed three potted rice plants per treatment concentration/combination on top of the rotating disc (270 mm) and sprayed with the 12 mL spray solution. Treated plants are allowed to air-dry in the laboratory for about an hour. After air-drying, covered each treated rice plant. Each treated plant was infested with brown planthoppers using a suction vacuum. Plants are maintained at 27° C.±1° C., 50±5% RH and 24 hours light conditions in a holding room. Percent mortality is recorded 7 days after infestation by counting both the dead and alive brown planthoppers on the plants and on the water.
molecule,measurement,setting,value
"CC1(C)C(C=C(Cl)Cl)C1C(=O)OC(C#N)c1cccc(Oc2ccccc2)c1 (stereo not drawn) [Alpha-Cypermethrin, alpha-cypermethrin, reference compound]",Average control %,"[1]; Table 2.6, solo application Alpha-Cypermethrin, use rate 10 ppm",0%
same,Average control %,"[2]; Table 4.2, solo application Alpha-Cypermethrin, use rate 2 ppm",50%
"CC(C)N1C(=O)N(c2ccccc2)CS/C1=N\C(C)(C)C [Buprofezin, buprofezin, reference compound]",Average control %,"[3]; Table 11.2, solo application Buprofezin",50%
"C[C@@H](NC(=O)C(C#N)C(C)(C)C)c1ccc(Cl)cc1Cl (stereo partly shown) [Dicyclomet, dicyclomet, reference compound]",Average control %,"[4]; Table 8.2, solo application Dicyclomet, use rate 2500 ppm",0%
"N#CCNC(=O)c1cnccc1C(F)(F)F [Flonicamid, flonicamid, reference compound]",Average control %,"[1]; Table 2.5, solo application Flonicamid, use rate 2 ppm",0%
"O=C(NC(=O)c1c(F)cccc1F)Nc1ccc(Oc2ccc(C(F)(F)F)cc2Cl)cc1F [Flufenoxuron, flufenoxuron, reference compound]",Average control %,"[1]; Table 2.2, solo application Flufenoxuron, use rate 0.8 ppm",0%
same,Average control %,"[5]; Table 3.1, solo application Flufenoxuron, use rate 0.8 ppm",0%
"CON=CNC(=O)c1ccc(C2=NOC(c3cc(Cl)cc(Cl)c3)(C(F)(F)F)C2)cc1C (stereo not shown) [Fluxametamide, fluxametamide, reference compound]",Average control %,"[5]; Table 3.3, solo application Fluxametamide, use rate 0.4 ppm",25%
"Cc1nn(C)c(Cl)c1C(=O)Nc1cccc2c1C(C)OC2(C)C (stereo not shown) [Furametpyr, furametpyr, reference compound]",Average control %,"[6]; Table 7.1, solo application Furametpyr",0%
"C[n+]1c([O-])c(-c2ccccc2)c(=O)n2c1SC[C@H]2c1cnc(Cl)s1 [I-S-1, S-3-(2-chlorothiazol-5-yl)-8-methyl-7-oxo-6-phenyl-2,3-dihydrothiazolo[3,2-a] pyrimidin-8-ium-5-olate]",mortality at 1 ppm,[7],0%
same,mortality at 1 ppm,[8],0%
same,mortality at 1 ppm,[9],0%
same,mortality at 10 ppm,[10],0%
"COC(=O)N(C(=O)N1CO[C@@]2(C(=O)OC)Cc3cc(Cl)ccc3C2=N1)c1ccc(OC(F)(F)F)cc1 [Indoxacarb, indoxacarb, reference compound]",Average control %,"[1]; Table 2.4, solo application Indoxacarb, use rate 2 ppm",0%
"COCC(=O)N(c1c(C)cccc1C)C(C)C(=O)OC (stereo not shown) [Metalaxyl, metalaxyl, reference compound]",Average control %,"[6]; Table 7.2, solo application Metalaxyl",0%
same,Average control %,"[11]; Table 9.2, solo application Metalaxyl, use rate 500 ppm",0%
"Cc1nn(C)c(F)c1C(=O)Nc1ccccc1C(C)CC(C)C (stereo not shown) [Penflufen, penflufen, reference compound]",Average control %,"[11]; Table 9.1, solo application Penflufen, use rate 2500 ppm",0%
"C=CCOC1=NS(=O)(=O)c2ccccc21 [Probenazole, probenazole, reference compound]",Average control %,"[4]; Table 8.1, solo application Probenazole, use rate 500 ppm",0%
same,Average control %,"[12]; Table 10.1, solo application Probenazole",0%
"CC1=NNC(=O)N(/N=C/c2cccnc2)C1 [Pymetrozine, pymetrozine, reference compound]",Average control %,[13],26%
same,Average control %,"[2]; Table 4.1, solo application Pymetrozine, use rate 10 ppm",0%
"O=C1CCc2cccc3c2N1CC3 [Pyroquilon, pyroquilon, reference compound]",Average control %,"[12]; Table 10.2, solo application Pyroquilon",0%
"C[Si](C)(C)CC(O)(Cn1cncn1)c1ccc(F)cc1 (stereo not shown) [Simeconazol, simeconazole, reference compound]",Average control %,"[3]; Table 11.1, solo application Simeconazol",0%
"O=c1c(-c2cccc(C(F)(F)F)c2)c([O-])[n+](Cc2cncnc2)c2ccccn12 [Triflumezopyrim, triflumezopyrim, reference compound]",Average control %,"[1]; Table 2.3, solo application Triflumezopyrim, use rate 0.4 ppm",0%
spinosad [reference compound],Average control %,"[1]; Table 2.1, solo application Spinosad, use rate 4 ppm",0%
